Measurements: patent publication EP4737450A1 (Longwood Pharmaceuticals (Hangzhou) Co., Ltd, priority 2023, dated 2025)
Where two headings read alike, the source gives them in different places.

How the values were obtained:
plasma kallikrein (PKa) = biological target: T1, plasma kallikrein (PKa) (Homo sapiens, UniProt P03952); assay: Inhibitory activity against plasma kallikrein in vitro (fluorescence intensity enzyme assay, Pro-Phe-Arg-AMC substrate); format: biochemical; conditions: Pro-Phe-Arg-AMC substrate
T1 construct: purchased R & D 2497-SE
Outline: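 Fluorescence intensity enzyme assay with 10 nM enzyme and 60 µM Pro-Phe-Arg-AMC (final concentrations). Compounds in DMSO, tested in duplicate over a dose series. IC50 from nonlinear regression curve fitting.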

FXIa = FXIa (Homo sapiens, UniProt P03951); assay: Inhibitory activity against FXIa in vitro (biochemical assay)
Method: Test Example 1. Test of the inhibitory activities of the compounds of the present invention against plasma kallikrein (PKa), KLK1 and FXIa in vitro.
PKK (R & D, Cat # 2497-SE) and Pro-Phe-Arg-AMC (Nanjing Peptide, Cat # NJP23946) solutions were prepared in reaction buffer (50 mM Tris-HCl, pH 7.5, 250 mM NaCl). The final concentrations of enzyme protein and Pro-Phe-Arg-AMC in the reaction mixture were 10 nM and 60 µM, respectively. The starting concentration of the positive reference substance Avoralstat was 100 nM, 3-fold dilution, 10 + 0 dose. 0.05 µL of compound in 100% DMSO was delivered to a 384-well plate by an acoustic liquid delivery technique (Echo665; nanoliter range). Compound duplex test. 5 µL of 2 × enzyme solution was transferred to a 384 reaction plate and centrifuged at 1000 rpm for 1 minute, incubated at 25°C for 15 minutes; 5 µL of 2 × Pro-Phe-Arg-AMC solution was transferred to a 384 reaction plate, centrifuged at 1000 rpm for 1 minute, incubated at 25°C for 3 hours. […] IC50 values and nonlinear regression curve fitting were obtained using GraphPad Prism software.

KLK1 = KLK1 (Homo sapiens, UniProt P06870); assay: Inhibitory activity against KLK1 in vitro (biochemical assay)
Source text: Test Example 1. Test of the inhibitory activities of the compounds of the present invention against plasma kallikrein (PKa), KLK1 and FXIa in vitro. […]

[1] = plasma kallikrein enzyme assay, read-out: PKa IC50

Chain of FXIa (P03951 388-625 limits assumed): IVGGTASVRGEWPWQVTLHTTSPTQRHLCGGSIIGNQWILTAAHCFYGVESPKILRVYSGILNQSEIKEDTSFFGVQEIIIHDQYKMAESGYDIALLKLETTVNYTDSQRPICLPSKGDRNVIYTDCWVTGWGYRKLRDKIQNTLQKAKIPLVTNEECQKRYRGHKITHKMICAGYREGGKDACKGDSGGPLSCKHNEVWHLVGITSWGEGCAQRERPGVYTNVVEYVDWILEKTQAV
Chain of FXIa (P03951 19-387 partner limits assumed): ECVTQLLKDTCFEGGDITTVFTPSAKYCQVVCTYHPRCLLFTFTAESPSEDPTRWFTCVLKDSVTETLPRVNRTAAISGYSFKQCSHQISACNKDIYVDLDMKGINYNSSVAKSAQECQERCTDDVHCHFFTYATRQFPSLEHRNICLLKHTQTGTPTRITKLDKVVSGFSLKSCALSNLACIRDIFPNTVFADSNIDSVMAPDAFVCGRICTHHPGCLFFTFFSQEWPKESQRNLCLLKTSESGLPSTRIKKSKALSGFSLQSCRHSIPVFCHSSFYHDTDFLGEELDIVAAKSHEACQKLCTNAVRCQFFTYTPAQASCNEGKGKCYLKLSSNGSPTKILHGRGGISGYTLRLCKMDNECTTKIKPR
T1 sequence (P03952 391-638 limits assumed): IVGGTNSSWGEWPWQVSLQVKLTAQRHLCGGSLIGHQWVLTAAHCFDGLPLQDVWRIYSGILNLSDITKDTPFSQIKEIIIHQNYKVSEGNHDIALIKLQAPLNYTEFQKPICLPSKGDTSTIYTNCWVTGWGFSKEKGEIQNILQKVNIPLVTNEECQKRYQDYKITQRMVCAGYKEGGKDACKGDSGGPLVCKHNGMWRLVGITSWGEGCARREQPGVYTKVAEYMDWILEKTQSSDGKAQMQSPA
T1 sequence (P03952 20-390 partner limits assumed): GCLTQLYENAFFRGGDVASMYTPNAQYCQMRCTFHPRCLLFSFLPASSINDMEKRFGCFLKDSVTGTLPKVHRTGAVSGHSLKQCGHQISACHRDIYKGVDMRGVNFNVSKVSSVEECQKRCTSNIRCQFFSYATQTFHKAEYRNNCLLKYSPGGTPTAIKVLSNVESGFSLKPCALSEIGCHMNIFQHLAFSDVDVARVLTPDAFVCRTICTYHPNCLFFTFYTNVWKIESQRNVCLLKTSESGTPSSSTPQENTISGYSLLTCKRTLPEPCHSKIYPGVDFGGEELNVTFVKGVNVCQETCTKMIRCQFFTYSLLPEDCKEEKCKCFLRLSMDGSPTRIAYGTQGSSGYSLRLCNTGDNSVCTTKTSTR
Chain of KLK1 (P06870 25-262, species assumed): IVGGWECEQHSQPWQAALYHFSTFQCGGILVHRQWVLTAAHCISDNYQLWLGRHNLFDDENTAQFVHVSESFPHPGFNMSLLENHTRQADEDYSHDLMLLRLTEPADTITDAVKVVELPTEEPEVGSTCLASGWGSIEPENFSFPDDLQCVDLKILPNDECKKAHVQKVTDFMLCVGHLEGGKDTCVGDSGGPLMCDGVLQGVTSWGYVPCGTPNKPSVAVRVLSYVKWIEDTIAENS

| SMILES | IC50 (plasma kallikrein (PKa); [1]) [nM] | IC50 (FXIa; values in nM) [nM] | IC50 (KLK1; values in nM) [nM] | IC50 (FXIa; values given in µM) [nM] | IC50 (KLK1; values given in µM) [nM] | IC50 (plasma kallikrein (PKa); PKa IC50, plasma kallikrein enzyme assay) [nM] |
| --- | --- | --- | --- | --- | --- | --- |
| Cc1cc(N)nc(C)c1CNC(=O)c1cn(Cc2ccc3ncc(Cl)cc3c2)nn1 [Compound 9, N-((6-amino-2,4-dimethylpyridin-3-yl)methyl)-1-(3-chloroquinolin-6-yl)methyl-1H-1,2,3-triazole-4-carboxamide] | 0.406 | < 500 | < 500 |  |  |  |
| COc1cc(Cn2cc(C(=O)NCc3ccc(C(=N)N)cc3)cn2)ccc1CC1CC1 [Compound 255] | 2.35 |  |  | > 10000 | > 10000 |  |
| COCc1nn(Cc2ccc(Cn3cc(F)ccc3=O)cc2)cc1C(=O)NCc1c(C)cc(N)nc1C [Compound 24] | 0.175 |  |  | > 10000 | > 10000 |  |
| N=C(N)c1ccc(CNC(=O)c2cnn(Cc3ccc(N4CC5C(C4)C5(F)F)c(C(F)(F)F)c3)c2)cc1 (centres unmarked) [Compound 382] | 0.15 |  |  | > 10000 | > 10000 |  |
| Cc1cc(N)nc(C)c1CNC(=O)c1cn(Cc2cn3cc(C4CC4)ccc3n2)nn1 [Compound 6, N-((6-amino-2,4-dimethylpyridin-3-yl)methyl)-1-(6-cyclopropylimidazo[1,2-a]pyridin-2-yl)methyl-1H-1,2,3-triazole-4-carboxamide] | 0.032 | < 500 | < 500 |  |  |  |
| COc1ccc(F)c(CNC(=O)c2cn(Cc3ccc(Cn4ccccc4=O)cc3)nc2CO[C@H]2CCN(C)C2)c1F [Compound 225] | 2.86 |  |  | > 10000 | > 10000 |  |
| Cc1cc(N)nc(C)c1CNC(=O)c1cc(Cc2ccc(Cn3ccccc3=O)cc2)ccn1 [Compound 13] |  |  |  | > 10000 | > 10000 | 0.516 |
| COCc1nn(Cc2ccc(N3CC4C(C3)C4(F)F)cc2C#N)cc1C(=O)NCc1cc2cnccc2[nH]1 (centres unmarked) [Compound 157, N-((1H-pyrrolo[3,2-c]pyridin-2-yl)methyl)-1-(2-cyano-4-(6,6-difluoro-3-azabicyclo[3.1.0]hexan-3-yl)benzyl)-3-(methoxymethyl)-1H-pyrazole-4-carboxamide] | 1.89 |  |  | > 10000 | > 10000 |  |
| N=C(N)c1ccc(CNC(=O)c2cnn(Cc3ccc(N4CCOCC4)c(C(F)(F)F)c3)c2)cc1 [Compound 388] | 0.18 |  |  | > 10000 | > 10000 |  |
| N=C(N)c1ccc(CNC(=O)c2cnn(Cc3c(F)cc(N4CC5C(C4)C5(F)F)cc3F)c2)cc1 (centres unmarked) [Compound 368] | 0.19 |  |  | > 10000 | > 10000 |  |
| N=C(N)c1ccc(CNC(=O)c2cnn(Cc3ccc(OC4CC4)cc3)c2)cc1 [Compound 354] | 2.45 |  |  | > 10000 | > 10000 |  |
| N=C(N)c1ccc(CNC(=O)c2cnn(Cc3cc(Cl)c(CC4CC4)c(Cl)c3)c2)cc1 [Compound 372] | 0.85 |  |  | > 10000 | > 10000 |  |
| COCc1cn(Cc2ccc(CN3CCCCC3=O)cc2)nc1C(=O)NCc1c(C)cc(N)nc1C [Compound 74] | 5.7 |  |  | > 10000 | > 10000 |  |
| Cn1cnc2c1CC[C@H]2NC(=O)c1cn(Cc2cn3cc(C4CC4)ccc3n2)nn1 [Compound 35] | 1.65 |  |  | > 10000 | > 10000 |  |
| N=C(N)c1ccc(CNC(=O)c2cnn(Cc3cc(F)c(OC4CC4)c(F)c3)c2)cc1 [Compound 365] | 1.87 |  |  | > 10000 | > 10000 |  |
| Cc1cc(N)nc(C)c1CNC(=O)c1cn(Cc2ccc(CN3CCOCC3=O)cc2)nc1C(F)F [Compound 64] | 2.99 |  |  | > 10000 | > 10000 |  |
| N#Cc1cc(N2CCC(F)(F)CC2)ccc1Cn1cc(C(=O)NCc2ccc(C(=N)N)cc2)cn1 [Compound 158] |  |  |  | > 10000 | > 10000 |  |

The next lines start with results.

| IC50 (plasma kallikrein (PKa); [1]) [nM] | IC50 (FXIa; values in nM) [nM] | IC50 (KLK1; values in nM) [nM] | IC50 (FXIa; values given in µM) [nM] | IC50 (KLK1; values given in µM) [nM] | SMILES | IC50 (plasma kallikrein (PKa); PKa IC50, plasma kallikrein enzyme assay) [nM] |
| --- | --- | --- | --- | --- | --- | --- |
| 0.29 |  |  | > 10000 | > 10000 | Cc1cc(N)nc(C)c1CNC(=O)c1nsc(Cc2ccc(Cn3ccccc3=O)cc2)n1 [Compound 67] |  |
| 2.57 |  |  | > 10000 | > 10000 | O=C(NCc1ncc2cc[nH]c2c1F)c1cnn(Cc2ccc(Cn3ccccc3=O)cc2)c1 [Compound 362, N-((7-fluoro-1H-pyrrolo[3,2-c]pyridin-6-yl)methyl)-1-(4-((2-oxopyridin-1(2H)-yl)methyl)benzyl)-1H-pyrazole-4-carboxamide] |  |
| 2.1 |  |  | > 10000 | > 10000 | COCc1nn(Cc2ccc(Cn3ccccc3=O)cc2)cc1C(=O)NCc1ncc2c(c1F)OCC2 [Compound 396] |  |
| 1.9 |  |  | > 10000 | > 10000 | O=C(NCc1ncc2cc[nH]c2c1F)c1cn(Cc2ccc(Cn3ccccc3=O)cc2)nc1C(F)(F)F [Compound 357] |  |
| 1.94 |  |  | > 10000 | > 10000 | COc1ccc(F)c(CNC(=O)c2cn(Cc3ccc(Cn4ccccc4=O)cc3)nc2COCCN(C)C)c1F [Compound 222] |  |
| 1.62 |  |  | > 10000 | > 10000 | N=C(N)c1ccc(CNC(=O)c2cnn(Cc3ccc(Cn4ccccc4=O)cc3)c2)cc1 [Compound 12] |  |
| 0.32 |  |  | > 10000 | > 10000 | Cc1cc(N)nc(C)c1CNC(=O)c1csc(Cc2ccc(Cn3ccccc3=O)cc2)n1 [Compound 68] |  |
| 35 |  |  | > 10000 | > 10000 | COc1ccnc(CNC(=O)c2cn(Cc3ccc(Cn4ccccc4=O)cc3)nc2CN2CCN(C)CC2)c1F [Compound 213] |  |
| 1.45 |  |  | > 10000 | > 10000 | CN1CCc2cnc(CNC(=O)c3cn(Cc4ccc(Cn5ccccc5=O)cc4)nc3C(F)(F)F)c(F)c21 [Compound 389] |  |
| 1.92 |  |  | > 10000 | > 10000 | CN(C)c1ccnc(CNC(=O)c2cn(Cc3ccc(Cn4ccccc4=O)cc3)nc2C2COC2)c1F [Compound 335] |  |
| 0.09 |  |  | > 10000 | > 10000 | COCc1nn(Cc2ccc(Cn3ccccc3=O)cc2)cc1C(=O)NCc1ccc(C(=N)N)nc1 [Compound 361] |  |
| 2.23 |  |  | > 10000 | > 10000 | O=C(NCc1ncc2cc[nH]c2c1F)c1cn(Cc2ccc(Cn3ccccc3=O)cc2)nc1C1COC1 [Compound 337, N-((7-fluoro-1H-pyrrolo[3,2-c]pyridin-6-yl)methyl)-3-(oxetan-3-yl)-1-(4-((2-oxopyridin-1(2H)-yl)methyl)benzyl)-1H-pyrazole-4-carboxamide] |  |
| 0.07 |  |  | > 10000 | > 10000 | Cc1cc(N)nc(C)c1CNC(=O)c1cn(Cc2ccc(Cn3ccccc3=O)cc2)nc1C(F)(F)F [Compound 116] |  |
| 0.53 |  |  | > 10000 | > 10000 | Cc1cn2cncc2c(C)c1CNC(=O)c1cn(Cc2ccc(Cn3ccccc3=O)cc2)nc1C(F)(F)F [Compound 203] |  |
| 0.16 |  |  | > 10000 | > 10000 | Cc1cc(N)nc(C)c1CNC(=O)c1ncn(Cc2ccc(Cn3cccc(C)c3=O)cc2)n1 [Compound 56] |  |
| 1.6 |  |  | > 10000 | > 10000 | CN(C)c1ccnc(CNC(=O)c2cn(Cc3ccc(Cn4ccccc4=O)cc3)nc2C2CC2(F)F)c1F (centres unmarked) [Compound 310] |  |
| 1.68 |  |  | > 10000 | > 10000 | O=C(NCc1ncc2c(c1F)OCC2)c1cnn(Cc2ccc(Cn3ccccc3=O)cc2)c1 [Compound 395] |  |
| 0.67 |  |  | > 10000 | > 10000 | CCc1c(N)nc(C)c(CNC(=O)c2ncn(Cc3ccc(Cn4ccccc4=O)cc3)n2)c1C [Compound 257] |  |
| 0.9 |  |  | > 10000 | > 10000 | Cc1cc2nccn2c(C)c1CNC(=O)c1nc(Cc2ccc(Cn3ccccc3=O)cc2)ns1 [Compound 137] |  |
| 1.48 |  |  | > 10000 | > 10000 | Cc1nc(N)ccc1CNC(=O)c1ncn(Cc2ccc(Cn3ccccc3=O)cc2)n1 [Compound 27] |  |
| 0.07 |  |  | > 10000 | > 10000 | N=C(N)c1ccc(CNC(=O)c2cnn(Cc3ccc(Cn4ccccc4=O)cc3)c2)c(F)c1 [Compound 341] |  |
| 1.38 |  |  | > 10000 | > 10000 | Cn1ccc2cnc(CNC(=O)c3cn(Cc4ccc(Cn5ccccc5=O)cc4)nc3C3COC3)c(F)c21 [Compound 338] |  |
|  |  |  | > 10000 | > 10000 | COc1ccnc(CNC(=O)c2cn(Cc3ccc(Cn4ccccc4=O)cc3)nc2-c2c(C)cnn2C)c1F [Compound 221, N-((3-fluoro-4-methoxypyridin-2-yl)methyl)-2',4'-dimethyl-1-(4-((2-oxopyridin-1(2H)yl)methyl)benzyl)-1H,2'H-[3,3'-bispyrazole]-4-carboxamide] |  |
|  |  |  | > 10000 | > 10000 | COCc1nn(Cc2ccc(Cn3ccccc3=O)cc2)cc1C(=O)NCc1ncc2c(c1F)N(C)CC2 [Compound 146] |  |
|  |  |  | > 10000 | > 10000 | COCc1nn(Cc2ccc(Cn3ccccc3=O)cc2)cc1C(=O)NCc1nccc(OC)c1F [KVD900, reference compound] |  |
